In article PMC11157767 (Molecular Cancer, 2024):

System: TFG-MET allograft tumors
Assay: RNA-sequencing, differential expression and GSEA of TFG-MET allograft tumors
Assay type: in vivo, mouse
Conditions: RNA-sequencing of treated allograft tumors
Protocol: Error bars display standard error of mean, statistical significance was determined using t-test analysis. (****;p<0.0001, ***;p<0.001, **;p<0.01, *;p<0.05). […] Each dot represents an individual replicate. Error bars display standard error of the mean.
Each dot represents one gene.

## C[C@@H](Oc1cc(-c2cnn(C3CCNCC3)c2)cnc1N)c1c(Cl)ccc(F)c1Cl [Crizotinib]
  expression of Mapk signature genes in tumors: more heterogenous expression
